{
  "source": "patent US12692238B2",
  "about": "“Substituted pyridazinone herbicides” (FMC CORPORATION, priority 2020, dated 2026)",
  "format_in_all_cases": "in vivo",
  "key": {"[1]": {"test_system": "goosegrass (Eleusine indica)", "experiment": "Test A postemergence, goosegrass", "settings": "10 days", "summary_of_the_method": "(§1)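 Greenhouse herbicide screen: seeded pots sprayed on soil (preemergence) or seedlings at one- to two-leaf stage, 2 to 10 cm (postemergence). Evaluation 10 days later by eye against controls; 100 means complete control, 0 no effect.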"}, "[2]": {"test_system": "wheat (Triticum aestivum)", "experiment": "Test A preemergence, wheat", "settings": "125 g ai/ha, 0 to 100 scale, 10 days"}, "[3]": {"test_system": "oat, wild (wild oat, Avena fatua)", "experiment": "Test A postemergence, oat, wild", "settings": "10 days", "summary_of_the_method": "as §1"}, "[4]": {"test_system": "blackgrass (Alopecurus myosuroides)", "experiment": "Test A preemergence, blackgrass", "settings": "0 to 100 scale, 10 days", "summary_of_the_method": "as §1"}, "[5]": {"test_system": "palmer amaranth (pigweed, palmer, Amaranthus palmeri)", "experiment": "Test A preemergence, palmer amaranth", "settings": "0 to 100 scale, 10 days", "summary_of_the_method": "as §1"}, "[6]": {"test_system": "goosegrass (Eleusine indica)", "experiment": "Test A preemergence, goosegrass", "settings": "0 to 100 scale, 10 days", "summary_of_the_method": "as §1"}, "[7]": {"test_system": "corn (Zea mays)", "experiment": "Test A preemergence, corn", "settings": "0 to 100 scale, 10 days", "summary_of_the_method": "as §1"}, "[8]": {"test_system": "horseweed (Erigeron canadensis)", "experiment": "Test A postemergence, horseweed", "settings": "10 days", "summary_of_the_method": "as §1"}, "[9]": {"test_system": "palmer amaranth (pigweed, palmer, Amaranthus palmeri)", "experiment": "Test A postemergence, palmer amaranth", "settings": "10 days", "summary_of_the_method": "as §1"}, "[10]": {"test_system": "soybean (Glycine max)", "experiment": "Test A preemergence, soybean", "settings": "0 to 100 scale, 10 days", "summary_of_the_method": "as §1"}, "[11]": {"test_system": "oat, wild (wild oat, Avena fatua)", "experiment": "Test A preemergence, oat, wild", "settings": "0 to 100 scale, 10 days", "summary_of_the_method": "as §1"}, "[12]": {"test_system": "ducksalad (Heteranthera limosa)", "experiment": "Test B flooded paddy test, ducksalad", "settings": "Heteranthera limosa; 250 g ai/ha, Flood; visually evaluated after 10 to 14 days; read-out: Plant response rating, Ducksalad (0 to 100 scale where 0 is no effect and 100 is complete control)", "summary_of_the_method": "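Plants grown to 2-leaf stage; pots flooded 3 cm above soil and compound applied directly into paddy water, depth maintained throughout. After 10 to 14 days in greenhouse, visual rating versus controls on 0–100 scale (0 no effect, 100 complete control).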"}, "[13]": {"test_system": "kochia (Bassia scoparia)", "experiment": "Test A preemergence, kochia", "settings": "Bassia scoparia, pre-emergence, 240 h, 0 to 100 scale, 10 days, read-out: Plant response rating, Kochia", "summary_of_the_method": "as §1"}, "[14]": {"test_system": "soybean (Glycine max)", "experiment": "Test A postemergence, soybean", "settings": "10 days", "summary_of_the_method": "as §1"}, "[15]": {"settings": "31 g ai/ha, postemergence, 0 to 100 scale (0 no effect, 100 complete control)"}, "[16]": {"settings": "Postemergence, 125 g ai/ha, 0 to 100 scale"}},
  "data": [
    {"smiles": "Cc1ccc2cc3ccc(C)cc3c(-c3c(OCOC(=O)C(C)(C)C)c(Cl)nn(C)c3=O)c2c1", "note": "[Compound 9, [[3-chloro-5-(2,7-dimethyl-9-anthracenyl)-1,6-dihydro-1-methyl-6-oxo-4-pyridazinyl]oxy]methyl 2,2-dimethylpropanoate]", "values": [
      {"measurement": "Plant response rating, Goosegrass", "setting": "[1]; [15]", "result": 30},
      {"measurement": "Plant response rating, Goosegrass", "setting": "[1]; [16]", "result": 30},
      {"measurement": "Plant response rating, Wheat", "setting": "[2]", "result": 0},
      {"measurement": "Plant response rating, Oat, Wild", "setting": "[3]; [15]", "result": 0},
      {"measurement": "Plant response rating, Oat, Wild", "setting": "[3]; [16]", "result": 0},
      {"measurement": "Plant response rating, Blackgrass", "setting": "[4]; 31 g ai/ha", "result": 0},
      {"measurement": "Plant response rating, Blackgrass", "setting": "[4]; 125 g ai/ha", "result": 0},
      {"measurement": "Plant response rating, Pigweed, Palmer", "setting": "[5]; 31 g ai/ha", "result": 40},
      {"measurement": "Plant response rating, Pigweed, Palmer", "setting": "[5]; 125 g ai/ha", "result": 100},
      {"measurement": "Plant response rating, Goosegrass", "setting": "[6]; 31 g ai/ha", "result": 10},
      {"measurement": "Plant response rating, Goosegrass", "setting": "[6]; 125 g ai/ha", "result": 10},
      {"measurement": "Plant response rating, Corn", "setting": "[7]; 31 g ai/ha", "result": 0},
      {"measurement": "Plant response rating, Corn", "setting": "[7]; 125 g ai/ha", "result": 0},
      {"measurement": "Plant response rating, Horseweed", "setting": "[8]; [15]", "result": 100},
      {"measurement": "Plant response rating, Horseweed", "setting": "[8]; [16]", "result": 100},
      {"measurement": "Plant response rating, Pigweed, Palmer", "setting": "[9]; [15]", "result": 80},
      {"measurement": "Plant response rating, Pigweed, Palmer", "setting": "[9]; [16]", "result": 80},
      {"measurement": "Plant response rating, Soybean", "setting": "[10]; 31 g ai/ha", "result": 0},
      {"measurement": "Plant response rating, Soybean", "setting": "[10]; 125 g ai/ha", "result": 0},
      {"measurement": "Plant response rating, Oat, Wild", "setting": "[11]; 31 g ai/ha", "result": 0},
      {"measurement": "Plant response rating, Oat, Wild", "setting": "[11]; 125 g ai/ha", "result": 0},
      {"measurement": "pest or weed control at 250 g/ha", "setting": "[12]", "result": 100, "unit": "%"},
      {"measurement": "pest or weed control at 31 g/ha", "setting": "[13]; 31 g ai/ha", "result": 50, "unit": "%"},
      {"measurement": "pest or weed control at 125 g/ha", "setting": "[13]; 125 g ai/ha", "result": 100, "unit": "%"},
      {"measurement": "Plant response rating, Soybean", "setting": "[14]; [15]", "result": 40},
      {"measurement": "Plant response rating, Soybean", "setting": "[14]; [16]", "result": 60}
    ]}
  ]
}
